In ChEMBL document CHEMBL4196110, “Covalent Inhibitors of the TEC Family of Kinases and Their Methods of Use” (ACS Med Chem Lett, 2018):
pIC50: −log10 of the molar value.

The compounds below were run against Tyrosine-protein kinase BTK (Homo sapiens, UniProt Q06187) (assay: Inhibition of BTK (unknown origin) using fluorescently labeled peptide as substrate after 3 hrs by microfluidic mobility shift assay).
Tyrosine-protein kinase BTK, sequence (Q06187 whole entry): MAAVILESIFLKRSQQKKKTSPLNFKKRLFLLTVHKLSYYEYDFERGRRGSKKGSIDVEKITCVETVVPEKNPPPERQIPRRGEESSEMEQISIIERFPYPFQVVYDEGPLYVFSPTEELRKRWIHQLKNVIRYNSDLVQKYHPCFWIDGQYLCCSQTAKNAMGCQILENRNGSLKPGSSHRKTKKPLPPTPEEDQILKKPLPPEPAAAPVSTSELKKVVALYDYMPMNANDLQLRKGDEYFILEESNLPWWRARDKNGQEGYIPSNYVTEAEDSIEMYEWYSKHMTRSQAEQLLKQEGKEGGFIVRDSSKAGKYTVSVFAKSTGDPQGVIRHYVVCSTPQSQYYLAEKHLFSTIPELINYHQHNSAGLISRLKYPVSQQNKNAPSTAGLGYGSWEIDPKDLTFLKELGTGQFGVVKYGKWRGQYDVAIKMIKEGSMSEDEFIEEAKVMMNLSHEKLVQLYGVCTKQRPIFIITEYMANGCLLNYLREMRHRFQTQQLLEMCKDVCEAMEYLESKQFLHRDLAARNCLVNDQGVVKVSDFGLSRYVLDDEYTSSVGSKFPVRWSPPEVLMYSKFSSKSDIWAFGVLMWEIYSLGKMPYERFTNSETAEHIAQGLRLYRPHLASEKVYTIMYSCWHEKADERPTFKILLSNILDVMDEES
`C=CC(=O)N1CC[C@]2(C1)C[C@H](n1c(NC(=O)c3ccc(C(F)F)s3)nc3cc(CN[C@@H](C)C(C)(C)C)ccc31)C2` showed a pIC50 of 8.36.
`C=CC(=O)N1CC[C@]2(C1)C[C@H](n1c(NC(=O)c3ccc(-c4ccnc(N)c4)s3)nc3ccccc31)C2` was tested, and the pIC50 was 9.20.
Compound `C=CC(=O)N1CC[C@]2(C1)C[C@H](n1c(NC(=O)c3ccc(-c4cnco4)s3)nc3cc(NC)ccc31)C2` has a pIC50 of 9.21.
